Assay results published in ChEMBL document CHEMBL1201862, “PubChem BioAssay data set” (2004).
Calls of active or inactive are those of the source.

Experiments:
[1] = target: T1, Sentrin-specific protease 6 (Homo sapiens, UniProt Q9GZR1); test: SENP6 protease inhibitors, SAR follow-up, biochemical, luminescence, set 2 (AID 588598); type: functional
T1 sequence (Q9GZR1 whole entry): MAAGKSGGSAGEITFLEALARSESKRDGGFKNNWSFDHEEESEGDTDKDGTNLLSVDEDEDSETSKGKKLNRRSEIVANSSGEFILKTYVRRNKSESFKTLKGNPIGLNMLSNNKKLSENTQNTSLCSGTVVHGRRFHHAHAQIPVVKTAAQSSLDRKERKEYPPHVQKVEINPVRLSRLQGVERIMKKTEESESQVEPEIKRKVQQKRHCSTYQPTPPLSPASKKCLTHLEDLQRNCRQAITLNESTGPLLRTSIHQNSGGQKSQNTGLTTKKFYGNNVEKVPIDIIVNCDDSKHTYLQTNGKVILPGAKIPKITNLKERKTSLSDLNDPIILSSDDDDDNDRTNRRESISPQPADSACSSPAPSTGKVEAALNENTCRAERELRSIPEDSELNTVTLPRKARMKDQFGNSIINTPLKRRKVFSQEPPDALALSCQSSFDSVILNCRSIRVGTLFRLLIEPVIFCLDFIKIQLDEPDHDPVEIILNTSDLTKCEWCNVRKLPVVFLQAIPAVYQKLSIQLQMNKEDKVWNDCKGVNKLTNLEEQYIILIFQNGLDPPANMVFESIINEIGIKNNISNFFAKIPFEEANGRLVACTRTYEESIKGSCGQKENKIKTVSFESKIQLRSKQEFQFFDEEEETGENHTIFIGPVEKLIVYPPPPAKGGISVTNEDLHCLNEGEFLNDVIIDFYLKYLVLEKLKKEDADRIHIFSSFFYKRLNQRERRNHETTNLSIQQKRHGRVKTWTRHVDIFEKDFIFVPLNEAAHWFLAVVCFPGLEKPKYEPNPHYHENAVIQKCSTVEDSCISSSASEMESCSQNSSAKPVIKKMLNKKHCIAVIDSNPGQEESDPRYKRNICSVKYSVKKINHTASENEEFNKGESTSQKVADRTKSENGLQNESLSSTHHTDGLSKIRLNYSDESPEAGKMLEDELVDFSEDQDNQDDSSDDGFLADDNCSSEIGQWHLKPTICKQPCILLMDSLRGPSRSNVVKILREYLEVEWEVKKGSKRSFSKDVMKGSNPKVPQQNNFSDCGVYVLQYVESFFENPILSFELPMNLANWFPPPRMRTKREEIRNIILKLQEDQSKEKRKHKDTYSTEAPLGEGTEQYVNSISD

[2] = target: T2, Sentrin-specific protease 7 (Homo sapiens, UniProt Q9BQF6); test: SENP7 protease inhibitors, SAR follow-up, biochemical, luminescence, set 2 (AID 588600); type: functional
T2 sequence (Q9BQF6 whole entry): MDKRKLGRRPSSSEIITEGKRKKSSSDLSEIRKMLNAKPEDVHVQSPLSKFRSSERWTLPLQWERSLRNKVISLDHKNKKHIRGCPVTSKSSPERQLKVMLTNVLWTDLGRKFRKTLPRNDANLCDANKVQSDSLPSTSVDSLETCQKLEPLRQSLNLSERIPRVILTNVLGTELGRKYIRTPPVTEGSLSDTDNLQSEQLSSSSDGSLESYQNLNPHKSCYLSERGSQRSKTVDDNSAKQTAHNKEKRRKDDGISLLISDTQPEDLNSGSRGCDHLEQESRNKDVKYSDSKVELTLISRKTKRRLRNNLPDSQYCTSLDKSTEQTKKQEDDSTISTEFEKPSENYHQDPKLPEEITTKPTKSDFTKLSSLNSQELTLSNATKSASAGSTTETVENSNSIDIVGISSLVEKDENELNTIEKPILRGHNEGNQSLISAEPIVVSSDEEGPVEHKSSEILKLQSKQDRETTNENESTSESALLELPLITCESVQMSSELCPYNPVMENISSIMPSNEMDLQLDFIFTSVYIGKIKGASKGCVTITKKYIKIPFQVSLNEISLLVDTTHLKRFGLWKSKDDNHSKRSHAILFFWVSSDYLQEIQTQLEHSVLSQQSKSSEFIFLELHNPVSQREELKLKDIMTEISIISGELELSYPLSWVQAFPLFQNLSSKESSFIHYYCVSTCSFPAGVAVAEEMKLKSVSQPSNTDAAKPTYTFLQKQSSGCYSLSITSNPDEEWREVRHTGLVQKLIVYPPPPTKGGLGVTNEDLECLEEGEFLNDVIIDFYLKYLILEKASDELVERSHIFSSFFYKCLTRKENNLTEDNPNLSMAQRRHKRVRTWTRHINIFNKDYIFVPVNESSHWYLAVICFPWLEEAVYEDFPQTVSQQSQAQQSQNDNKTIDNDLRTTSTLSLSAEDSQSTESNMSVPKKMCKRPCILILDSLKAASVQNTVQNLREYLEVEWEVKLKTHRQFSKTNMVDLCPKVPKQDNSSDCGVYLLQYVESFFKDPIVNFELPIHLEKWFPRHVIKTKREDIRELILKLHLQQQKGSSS

[3] = target: T3, Sentrin-specific protease 8 (Homo sapiens, UniProt Q96LD8); test: SENP8 protease inhibitors, SAR follow-up, biochemical, luminescence, set 2 (AID 588601); type: functional
T3 sequence (Q96LD8 whole entry): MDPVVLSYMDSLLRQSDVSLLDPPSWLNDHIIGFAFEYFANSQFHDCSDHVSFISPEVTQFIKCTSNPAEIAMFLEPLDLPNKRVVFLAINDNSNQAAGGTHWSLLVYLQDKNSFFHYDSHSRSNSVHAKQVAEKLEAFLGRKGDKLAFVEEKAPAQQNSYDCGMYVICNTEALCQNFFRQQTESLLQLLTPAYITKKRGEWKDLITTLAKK

Caspase-3 = target: T4, Caspase-3 (Homo sapiens, UniProt P42574); test: caspase-3 inhibitors as off-family protease, SAR follow-up, selectivity assay for SENP protease inhibitor project, biochemical, luminescence, set 2 (AID 588599); type: functional
T4 sequence (P42574 whole entry): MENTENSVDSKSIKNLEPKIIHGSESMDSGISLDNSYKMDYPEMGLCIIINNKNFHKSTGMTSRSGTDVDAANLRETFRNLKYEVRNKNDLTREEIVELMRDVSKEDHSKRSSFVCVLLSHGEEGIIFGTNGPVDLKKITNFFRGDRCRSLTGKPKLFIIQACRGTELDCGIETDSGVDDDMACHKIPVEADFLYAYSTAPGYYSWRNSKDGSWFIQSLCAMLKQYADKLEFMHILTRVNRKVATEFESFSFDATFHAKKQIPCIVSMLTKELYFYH

[4] = target: T5, DNA repair protein RAD52 homolog (Homo sapiens, UniProt P43351); type: functional, biochemical
T5 sequence (P43351 whole entry): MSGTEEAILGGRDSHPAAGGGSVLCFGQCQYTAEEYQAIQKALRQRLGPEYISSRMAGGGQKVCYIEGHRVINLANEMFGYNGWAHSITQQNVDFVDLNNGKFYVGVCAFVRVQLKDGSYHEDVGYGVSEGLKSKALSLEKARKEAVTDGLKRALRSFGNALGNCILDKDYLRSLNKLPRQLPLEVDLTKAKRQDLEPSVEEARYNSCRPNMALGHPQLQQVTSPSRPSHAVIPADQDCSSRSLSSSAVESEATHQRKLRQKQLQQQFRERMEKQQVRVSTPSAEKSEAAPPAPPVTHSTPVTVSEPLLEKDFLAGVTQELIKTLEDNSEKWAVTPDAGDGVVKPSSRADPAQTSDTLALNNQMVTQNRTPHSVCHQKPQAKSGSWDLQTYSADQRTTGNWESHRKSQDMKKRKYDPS

Melanocortin receptor 4 [5] = target: T6, Melanocortin receptor 4 (Homo sapiens, UniProt P32245); type: functional, cell-based;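 further: Cell-based assay with luminescence read-out, confirmatory dose-response testing for agonist activity of biased ligands at MC4R; human U2OS cells with tagged receptor and beta-arrestin; potency of agonists that increase receptor coupling to beta-arrestin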
T6 sequence (P32245 whole entry): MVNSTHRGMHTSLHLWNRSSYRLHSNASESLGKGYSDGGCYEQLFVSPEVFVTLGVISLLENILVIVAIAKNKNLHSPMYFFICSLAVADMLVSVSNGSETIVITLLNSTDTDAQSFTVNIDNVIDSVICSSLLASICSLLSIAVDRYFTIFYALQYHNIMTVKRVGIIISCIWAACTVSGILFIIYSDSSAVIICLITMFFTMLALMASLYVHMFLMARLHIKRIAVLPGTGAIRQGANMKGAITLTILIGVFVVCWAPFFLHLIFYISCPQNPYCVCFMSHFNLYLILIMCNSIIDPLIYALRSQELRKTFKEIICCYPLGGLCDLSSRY

Prothrombin = Prothrombin (Bos taurus, UniProt P00735); test: thrombin inhibition, dose response, biochemical, fluorescence polarization, uHTS hits (AID 602369); type: functional
Melanocortin receptor 4 [6] = target: T6, Melanocortin receptor 4; test: MC4R antagonist potency on cAMP, dose response, cell-based, TR-FRET, biased antagonists (AID 602298); type: functional;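 further: antagonist potency against agonist-stimulated cAMP production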
[7] = nonselective inhibitors of cellular cAMP signaling, dose response, counter-screen for MC4R biased antagonist project, cell-based, TR-FRET cAMP detection (AID 602305); type: functional;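 further: U2OS cells stimulated with forskolin near its EC80 as the cAMP inducer; potency is for inhibition of forskolin-stimulated cAMP signaling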
[8] = target: Heat shock protein HSP 90-alpha (Homo sapiens, UniProt P07900); type: functional, organism-based
[9] = target: 26S proteasome non-ATPase regulatory subunit 14 (Homo sapiens, UniProt O00487); test: inhibition of proteasome subunit RPN11 – biochemical, fluorescence polarization, uHTS hits, confirmation (AID 602368); type: functional
Chain of 26S proteasome non-ATPase regulatory subunit 14 (O00487 whole entry): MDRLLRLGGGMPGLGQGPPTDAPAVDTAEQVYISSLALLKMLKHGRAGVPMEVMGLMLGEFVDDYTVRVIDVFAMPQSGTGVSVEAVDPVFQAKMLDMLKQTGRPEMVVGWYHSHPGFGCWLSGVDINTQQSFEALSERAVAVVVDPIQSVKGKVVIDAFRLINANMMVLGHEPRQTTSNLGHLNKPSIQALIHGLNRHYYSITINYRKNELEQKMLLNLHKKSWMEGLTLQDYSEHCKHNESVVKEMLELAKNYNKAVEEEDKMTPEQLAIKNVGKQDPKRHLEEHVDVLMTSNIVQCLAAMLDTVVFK

[10] = target: 72 kDa type IV collagenase (Homo sapiens, UniProt P08253); test: Dose Response validation of uHTS RPN11 inhibitor hits using a MMP-2 Fluorescence assay.; type: functional
Chain of 72 kDa type IV collagenase (P08253 whole entry): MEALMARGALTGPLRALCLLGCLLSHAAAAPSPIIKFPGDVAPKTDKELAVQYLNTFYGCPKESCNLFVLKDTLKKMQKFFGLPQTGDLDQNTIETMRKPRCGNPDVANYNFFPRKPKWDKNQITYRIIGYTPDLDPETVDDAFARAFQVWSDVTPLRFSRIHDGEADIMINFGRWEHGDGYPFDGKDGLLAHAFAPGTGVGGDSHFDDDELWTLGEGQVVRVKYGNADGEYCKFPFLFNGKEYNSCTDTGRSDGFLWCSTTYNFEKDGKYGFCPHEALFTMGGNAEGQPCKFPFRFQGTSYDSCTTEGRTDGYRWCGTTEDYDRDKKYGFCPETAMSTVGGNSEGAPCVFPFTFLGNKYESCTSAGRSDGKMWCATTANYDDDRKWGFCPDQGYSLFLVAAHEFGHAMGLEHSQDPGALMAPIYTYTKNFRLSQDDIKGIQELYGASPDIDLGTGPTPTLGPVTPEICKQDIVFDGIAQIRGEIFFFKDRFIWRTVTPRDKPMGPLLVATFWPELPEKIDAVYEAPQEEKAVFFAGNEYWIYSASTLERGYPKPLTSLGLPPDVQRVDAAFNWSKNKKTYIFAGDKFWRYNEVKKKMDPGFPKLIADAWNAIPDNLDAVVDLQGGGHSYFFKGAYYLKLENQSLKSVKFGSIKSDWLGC

[11] = HeLa cell cytotoxicity, dose response, cytotoxicity control for MgcRacGAP inhibitor project (AID 624300); type: functional
[12] = target: T7, Rac GTPase-activating protein 1 (Homo sapiens, UniProt Q9H0H5); test: MgcRacGAP GTPase-activating activity inhibitors, confirmation, biochemical, ADP Hunter fluorescence, primary and confirmatory (AID 624330); type: functional
T7 sequence (Q9H0H5 whole entry): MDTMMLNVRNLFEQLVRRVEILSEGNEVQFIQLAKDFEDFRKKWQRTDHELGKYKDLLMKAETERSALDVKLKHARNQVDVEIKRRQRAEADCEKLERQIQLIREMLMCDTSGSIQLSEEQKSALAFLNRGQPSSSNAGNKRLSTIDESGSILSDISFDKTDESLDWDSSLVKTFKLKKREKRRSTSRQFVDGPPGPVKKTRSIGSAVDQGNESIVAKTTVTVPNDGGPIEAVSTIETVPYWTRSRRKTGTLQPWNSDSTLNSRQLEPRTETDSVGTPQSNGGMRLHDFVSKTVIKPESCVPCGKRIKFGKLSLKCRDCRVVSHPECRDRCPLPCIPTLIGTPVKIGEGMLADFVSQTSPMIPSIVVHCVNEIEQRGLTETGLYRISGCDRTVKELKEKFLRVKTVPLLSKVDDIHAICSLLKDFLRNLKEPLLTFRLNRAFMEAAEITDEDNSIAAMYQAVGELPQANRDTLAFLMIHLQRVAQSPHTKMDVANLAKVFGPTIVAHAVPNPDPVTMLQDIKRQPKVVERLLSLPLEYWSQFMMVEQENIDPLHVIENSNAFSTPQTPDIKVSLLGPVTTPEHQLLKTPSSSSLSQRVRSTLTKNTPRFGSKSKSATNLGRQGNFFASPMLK

[13] = Luminescence Cell-Based Dose Confirmation HTS to Identify Inhibitors of Platelet Dense Granule Release. [Related pubchem assays: 1663 (Primary HTS), 1678 (Summary of Project)]; type: functional
[14] = target: Luciferin 4-monooxygenase (Photinus pyralis, UniProt P08659); test: firefly luciferase enzyme inhibitors, dose response, biochemical, luminescence (AID 1891)
Chain of Luciferin 4-monooxygenase (P08659 whole entry, the tested form may be a part): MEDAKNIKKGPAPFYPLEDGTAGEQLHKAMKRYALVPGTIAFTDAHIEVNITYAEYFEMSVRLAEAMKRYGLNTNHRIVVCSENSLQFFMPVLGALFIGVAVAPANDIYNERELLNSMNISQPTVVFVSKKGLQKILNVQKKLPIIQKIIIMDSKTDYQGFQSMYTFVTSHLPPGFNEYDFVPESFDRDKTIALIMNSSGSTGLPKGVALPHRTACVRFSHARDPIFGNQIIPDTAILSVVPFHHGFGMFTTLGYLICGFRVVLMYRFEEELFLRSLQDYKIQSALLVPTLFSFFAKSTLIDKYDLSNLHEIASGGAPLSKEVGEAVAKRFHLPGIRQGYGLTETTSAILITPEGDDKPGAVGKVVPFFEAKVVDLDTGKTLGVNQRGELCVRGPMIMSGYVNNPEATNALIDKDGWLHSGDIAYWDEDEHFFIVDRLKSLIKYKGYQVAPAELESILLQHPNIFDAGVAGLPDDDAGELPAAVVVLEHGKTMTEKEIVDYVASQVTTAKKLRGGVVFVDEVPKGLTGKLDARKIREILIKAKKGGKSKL

[15] = CAL PDZ domain peptide-binding inhibitors, dose response, biochemical, fluorescence polarization, untagged CAL PDZ, cherry-pick, set 2 (AID 602254); type: functional

Row | IC50 [1] | IC50 [2] | IC50 (Caspase-3) | SMILES | IC50 [3] | IC50 (Melanocortin receptor 4 [6]) | IC50 [7] | further results
1 | > 99 µM (inactive) | > 99 µM (inactive) | > 99 µM (inactive) | COc1ccc(/C=C(/C#N)c2nc(-c3ccccc3C)no2)cc1O | > 99 µM (inactive) | – | – | –
2 | > 99 µM (inactive) | > 99 µM (inactive) | > 99 µM (inactive) | Cc1[nH]c2ccccc2c1C(=O)C(=O)NCCn1ccc2ccccc21 | > 99 µM (inactive) | – | – | –
3 | – | – | – | CCCCCCCCCCCCCCCC[N+](C)(C)Cc1ccc(F)cc1 | – | 13.7 µM (inactive) | 59.8 µM (inactive) | AC50 [4]: 5.28 µM (active); EC50 (Melanocortin receptor 4 [5]): > 89.2 µM (inactive); IC50 (Prothrombin): 37.4 µM (active); AC50 [8]: 4.51 µM (active); IC50 [9]: 61.1 µM (active); IC50 [10]: 91.8 µM (active); CC50 [11]: 15.7 µM (active); IC50 [12]: 83.4 µM (active)
4 | – | – | – | COC(=O)c1cc(S(=O)(=O)NCCc2ccc(SC)cc2)c[nH]1 | – | – | – | EC50 [13]: > 112 µM (not active); EC50 [14]: > 112 µM (not active); AC50 [15]: 112 µM (active)
5 | – | – | – | CCOC(=O)c1sc(NC(=O)CCN2CCN(CC)CC2)c(C(=O)OCC)c1C | – | > 64.6 µM (inactive) | > 64.6 µM (inactive) | –
